A short description of assay [1]: Anorexigenic activity in dogs. The conditions noted are these: Canis lupus familiaris, read-out: percentage inhibition of consuming food. Format: in vivo, Beagle dogs. As to the method:
2. ANOREXIGENIC ACTIVITY IN DOGS
Beagle dogs are conditioned to take their food over the course of 5 minutes once per day. The test compound is administered orally in the form of a single dose of 10 mg/kg one hour before the food is presented. The amount of food ingested is measured at regular intervals.
Table II gives the percentage inhibition of consuming food as a function of the time after treatment.

The nature of assay [2]: Potentiation of amphetamine: stereotypies in rats after d-amphetamine sulphate. Format: in vivo. The conditions noted are these: 30 min before 5 mg/kg d-amphetamine sulphate i.p., over 3 hours, maximum 24. As to the method: 1. POTENTIATION OF AMPHETAMINE
The test compound is administered intraperitoneally to rats 30 minutes before the intraperitoneal injection of 5 mg/kg of d-amphetamine sulphate. The intensity of the stereotypies over a period of 3 hours is assessed by attributing a number from 0 to 4. Table I indicates the sum of the assessments as a function of the doses administered. The maximum assessment is 24.

Setting [3] is: Beagle dogs, 10 mg/kg oral, 1 hr after treatment.
[4] abbreviates: Beagle dogs, 10 mg/kg oral, 2 hrs after treatment.
The mark [5] stands for this setting: Beagle dogs, 10 mg/kg oral, 4 hrs after treatment.
Where [6] appears, read: Beagle dogs, 10 mg/kg oral, 24 hrs after treatment.

Structures can show the parent of a compound that is named as a salt. Where two headings read alike, the source gives them in different places.

`CC1(C)NC(C2CC2)CC1c1ccc2c(c1)OCO2` (stereo not shown) [XXXII, 2-cyclopropyl-4-(3',4'-methylenedioxyphenyl)-5,5-dimethylpyrrolidine hydrochloride]: the inhibition in vivo at 10 mg/kg in assay [1] (po, 1 h) stood at 100%; in assay [1] (po, 2 h), 100%; in assay [1] (po, 4 h), 100%; in assay [1] (po, 24 h), 0%. Besides, the “sum of the assessments of intensity of stereotypies” value (from here on “sum”) was found to be 18 in assay [2] (2 mg/kg intraperitoneal), 24 in assay [2] (8 mg/kg intraperitoneal) and 23 in assay [2] (32 mg/kg intraperitoneal).

Regarding `C#CCN1C(C)C(c2ccc(Cl)c(Cl)c2)CC1C1CC1.Cl` (stereo not shown) [Example XXXV, N-propargyl-2-cyclopropyl-4-(3',4'-dichlorophenyl)-5-methylpyrrolidine hydrochloride], the inhibition in vivo at 10 mg/kg in assay [1] (po, 1 h) amounted to 60%; in assay [1] (po, 2 h), 60%; in assay [1] (po, 4 h), 60%; in assay [1] (po, 24 h) it was 0%. Besides, the “sum” value is given as 18 in assay [2] (1 mg/kg intraperitoneal), 23 in assay [2] (4 mg/kg intraperitoneal) and 23 in assay [2] (16 mg/kg intraperitoneal).

In the case of `CC1NC(C2CC2)CC1c1cccc(Cl)c1.Cl` (stereo not shown) [XXV, 2-cyclopropyl-4-(m-chlorophenyl)-5-methylpyrrolidine hydrochloride], the inhibition in vivo at 10 mg/kg was 50% in assay [1] (setting [3]), 50% in assay [1] (setting [4]), 50% in assay [1] (setting [5]) and 0% in assay [1] (setting [6]). The “sum” value in assay [2] (0.5 mg/kg intraperitoneal) came out at 13; in assay [2] (2 mg/kg intraperitoneal), 18; in assay [2] (8 mg/kg intraperitoneal), 23.

For the molecule `CC1NC(C2CC2)CC1c1cccc(C(F)(F)F)c1.Cl` (stereo not shown) [XXIX, 2-cyclopropyl-4-(m-trifluoromethylphenyl)-5-methyl-pyrrolidine hydrochloride], the inhibition in vivo at 10 mg/kg in assay [1] (setting [3]) and in assay [1] (setting [4]) was 0% each time. For the same molecule, the “sum” value in assay [2] (1 mg/kg intraperitoneal) is listed as 17; in assay [2] (4 mg/kg intraperitoneal) it was 22; in assay [2] (16 mg/kg intraperitoneal), 16.

Take `CC1NC(C2CC2)CC1c1ccccc1.Cl` (stereo not shown) [Example XXII, 2-cyclopropyl-4-phenyl-5-methyl-pyrrolidine hydrochloride]: the inhibition in vivo at 10 mg/kg was 50% in assay [1] (po, 1 h); 50% in assay [1] (po, 2 h); 0% in assay [1] (po, 4 h). The “sum” value amounted to 8 in assay [2] (1 mg/kg intraperitoneal), 9 in assay [2] (4 mg/kg intraperitoneal) and 12 in assay [2] (16 mg/kg intraperitoneal).

As for `CC1C(c2ccc(Cl)c(Cl)c2)CC(C2CC2)N1Cc1ccccc1.Cl` (stereo not shown) [XXXIV, N-benzyl-2-cyclopropyl-4-(3',4'-dichlorophenyl)-5-methylpyrrolidine hydrochloride], the inhibition in vivo at 10 mg/kg in assay [1] (setting [3]) is 100%; in assay [1] (setting [4]), 100%; in assay [1] (setting [5]), 100%; in assay [1] (setting [6]), 50%; in assay [1] (Beagle dogs, 10 mg/kg oral, 48 hrs after treatment) it was 0%. For the same molecule, the figures for the “sum” value in assay [2] (2 mg/kg intraperitoneal), in assay [2] (8 mg/kg intraperitoneal) and in assay [2] (32 mg/kg intraperitoneal) were 20, 21 and 15, respectively.

Take `C#CCN1C(C)C(c2ccc(Cl)cc2)CC1C1CC1.Cl` (stereo not shown) [XXXVI, N-propargyl-2-cyclopropyl-4-(p-chlorophenyl)-5-methylpyrrolidine hydrochloride]: the inhibition in vivo at 10 mg/kg stood at 0% in assay [1] (po, 1 h) and 0% in assay [1] (po, 2 h). Moreover, the “sum” value in assay [2] (8 mg/kg intraperitoneal) and in assay [2] (32 mg/kg intraperitoneal) was 24 in each case.

On to `CC1(C)NC(C2CC2)CC1c1cccc(F)c1.Cl` (stereo not shown) [XXVIII, 2-cyclopropyl-4-(m-fluorophenyl)-5,5-dimethylpyrrolidine hydrochloride], for which the inhibition in vivo at 10 mg/kg was determined as 100% in assay [1] (setting [3]), 100% in assay [1] (setting [4]), 100% in assay [1] (setting [5]) and 0% in assay [1] (setting [6]). The figures for the “sum” value in assay [2] (1 mg/kg intraperitoneal), in assay [2] (4 mg/kg intraperitoneal) and in assay [2] (16 mg/kg intraperitoneal) were 16, 17 and 16, respectively.

As to `CC1(C)NC(C2CC2)CC1c1cccc(Cl)c1.Cl` (stereo not shown) [XXVI, 2-cyclopropyl-4-(m-chlorophenyl)-5,5-dimethylpyrrolidine hydrochloride], the inhibition in vivo at 10 mg/kg in assay [1] (setting [3]) turned out to be 60%; in assay [1] (setting [4]), 60%; in assay [1] (setting [5]) it was 60%; in assay [1] (setting [6]), 0%. Moreover, the “sum” value in assay [2] (1 mg/kg intraperitoneal) stood at 12; in assay [2] (4 mg/kg intraperitoneal), 14; in assay [2] (16 mg/kg intraperitoneal) it was 19.

Consider `CC1(C)NC(C2CC2)CC1c1ccc(Cl)cc1.Cl` (stereo not shown) [Example XXIII, 2-cyclopropyl-4-(p-chlorophenyl)-5,5-dimethyl-pyrrolidine hydrochloride], for which the inhibition in vivo at 10 mg/kg in assay [1] (setting [3]) came out at 100%; in assay [1] (setting [4]), 100%; in assay [1] (setting [5]) it was 100%; in assay [1] (setting [6]) it was 50%. For the same molecule, the “sum” value in assay [2] (2 mg/kg intraperitoneal) is given as 12; in assay [2] (8 mg/kg intraperitoneal) it was 18; in assay [2] (32 mg/kg intraperitoneal), 17.

With `CC1(C)NC(C2CC2)CC1c1ccccc1.Cl` (stereo not shown) [Example XXI, 2-cyclopropyl-4-phenyl-5,5-dimethylpyrrolidine hydrochloride], the inhibition in vivo at 10 mg/kg in assay [1] (po, 1 h) is 100%; in assay [1] (po, 2 h) it was 100%; in assay [1] (po, 4 h), 70%; in assay [1] (po, 24 h), 0%. Moreover, the “sum” value stood at 10 in assay [2] (4 mg/kg intraperitoneal), 11 in assay [2] (8 mg/kg intraperitoneal) and 13 in assay [2] (16 mg/kg intraperitoneal).

In the case of `CC1(C)NC(C2CC2)CC1c1cccc(C(F)(F)F)c1.Cl` (stereo not shown) [Example XXX, 2-cyclopropyl-4-(m-trifluoromethylphenyl)-5,5-dimethylpyrrolidine hydrochl oride], the inhibition in vivo at 10 mg/kg in assay [1] (setting [3]) and in assay [1] (setting [4]) was 0% each time. Further, the figures for the “sum” value in assay [2] (1 mg/kg intraperitoneal), in assay [2] (4 mg/kg intraperitoneal) and in assay [2] (16 mg/kg intraperitoneal) were 20, 24 and 24, respectively.

Take `CCN1C(C)C(c2cccc(C(F)(F)F)c2)CC1C1CC1` (stereo not shown) [XXXVIII, N-ethyl-2-cyclopropyl-4-(m-trifluoromethylphenyl)-5-methylpyrrolidine]: the inhibition in vivo at 10 mg/kg in assay [1] (po, 1 h) is 0%; in assay [1] (po, 2 h), 0%. In addition, the “sum” value in assay [2] (1 mg/kg intraperitoneal) is reported as 20; in assay [2] (4 mg/kg intraperitoneal), 24; in assay [2] (8 mg/kg intraperitoneal), 24.

Turning to `COc1ccc(C2CC(C3CC3)NC2C)cc1OC.Cl` (stereo not shown) [XXXI, 2-cyclopropyl-4-(3',4'-dimethoxyphenyl)-5-methylpyrrolidine hydrochloride], the inhibition in vivo at 10 mg/kg in assay [1] (setting [3]) and in assay [1] (setting [4]) was 0% each time. In addition, the “sum” value in assay [2] (2 mg/kg intraperitoneal) turned out to be 10; in assay [2] (8 mg/kg intraperitoneal), 24; in assay [2] (32 mg/kg intraperitoneal) it was 23.

Consider `CC1C(c2ccc(Cl)cc2)CC(C2CC2)N1CCO.Cl` (stereo not shown) [XXXVII, N-hydroxyethyl-2-cyclopropyl-4-(p-chlorophenyl)-5-methylpyrrolidine hydrochloride], for which the inhibition in vivo at 10 mg/kg in assay [1] (setting [3]) and in assay [1] (setting [4]) was 0% throughout. Moreover, the “sum” value was 12 in assay [2] (2 mg/kg intraperitoneal), 24 in assay [2] (16 mg/kg intraperitoneal) and 24 in assay [2] (32 mg/kg intraperitoneal).

Consider `Cc1ccc(C2CC(C3CC3)NC2C)cc1.Cl` (stereo not shown) [XXXIII, 2-cyclopropyl-4-(p-methylphenyl)-5-methyl-pyrrolidine hydrochloride], for which the inhibition in vivo at 10 mg/kg in assay [1] (po, 1 h) was 0%; in assay [1] (po, 2 h) it was 0%. The “sum” value in assay [2] (2 mg/kg intraperitoneal) was 12; in assay [2] (8 mg/kg intraperitoneal), 19; in assay [2] (32 mg/kg intraperitoneal) it was 24.

Source of the values: patent US4005103A, “Pyrrolidine derivatives” (priority 1973, dated 1977).
